Laboratory results published in PubChem BioAssay (NCI).
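Exposure lasted 48 hours, with cells grown in 96-well plates and compounds tested at five concentrations. GI50 is the concentration that inhibits growth by half. TGI is the concentration that stops growth completely.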

Columns and labels:
Test in all cases: NCI anticancer screen, dose series, 48 h
786-0 renal = test system: 786-0 renal
A498 renal = test system: A498 renal
A549 NSCLC = test system: A549 NSCLC
ACHN renal = test system: ACHN renal
BT-549 breast = test system: BT-549 breast
CAKI-1 renal = test system: CAKI-1 renal
CCRF-CEM leukemia = test system: CCRF-CEM leukemia
COLO 205 colon = test system: COLO 205 colon
DU-145 prostate = test system: DU-145 prostate
EKVX NSCLC = test system: EKVX NSCLC
HCC-2998 colon = test system: HCC-2998 colon
HCT-116 colon = test system: HCT-116 colon
HCT-15 colon = test system: HCT-15 colon
HL-60(TB) leukemia = test system: HL-60(TB) leukemia
HOP-62 NSCLC = test system: HOP-62 NSCLC
HOP-92 NSCLC = test system: HOP-92 NSCLC
HS 578T breast = test system: HS 578T breast
HT29 colon = test system: HT29 colon
IGROV1 ovarian = test system: IGROV1 ovarian
K-562 leukemia = test system: K-562 leukemia
KM12 colon = test system: KM12 colon
LOX IMVI melanoma = test system: LOX IMVI melanoma
M14 melanoma = test system: M14 melanoma
MALME-3M melanoma = test system: MALME-3M melanoma
MCF7 breast = test system: MCF7 breast
MDA-MB-231 breast = test system: MDA-MB-231 breast
MDA-MB-435 = test system: MDA-MB-435
MDA-MB-468 breast = test system: MDA-MB-468 breast
MOLT-4 leukemia = test system: MOLT-4 leukemia
NCI-H226 lung = test system: NCI-H226 lung
NCI-H23 lung = test system: NCI-H23 lung
NCI-H460 lung = test system: NCI-H460 lung
NCI-H522 lung = test system: NCI-H522 lung
OVCAR-3 ovarian = test system: OVCAR-3 ovarian
OVCAR-4 ovarian = test system: OVCAR-4 ovarian
OVCAR-5 ovarian = test system: OVCAR-5 ovarian
OVCAR-8 ovarian = test system: OVCAR-8 ovarian
PC-3 prostate = test system: PC-3 prostate
RPMI-8226 leukemia = test system: RPMI-8226 leukemia
RXF 393 renal = test system: RXF 393 renal
SF-268 CNS = test system: SF-268 CNS
SF-295 CNS = test system: SF-295 CNS
SF-539 CNS = test system: SF-539 CNS
SK-MEL-2 melanoma = test system: SK-MEL-2 melanoma
SK-MEL-28 melanoma = test system: SK-MEL-28 melanoma
SK-MEL-5 melanoma = test system: SK-MEL-5 melanoma
SK-OV-3 ovarian = test system: SK-OV-3 ovarian
SN12C renal = test system: SN12C renal
SNB-19 CNS = test system: SNB-19 CNS
SNB-75 CNS = test system: SNB-75 CNS
SR leukemia = test system: SR leukemia
SW-620 colon = test system: SW-620 colon
T-47D breast = test system: T-47D breast
TK-10 renal = test system: TK-10 renal
U251 CNS = test system: U251 CNS
UACC-257 melanoma = test system: UACC-257 melanoma
UACC-62 melanoma = test system: UACC-62 melanoma
UO-31 renal = test system: UO-31 renal

COc1cccc(-c2c(C#N)c(-c3ccc(Cl)cc3)nc3n[nH]c(-c4ccc(Cl)cc4)c23)c1
GI50 (786-0 renal): 11.2 µM | TGI (786-0 renal): > 100 µM | GI50 (A498 renal): 33.3 µM | TGI (A498 renal): > 100 µM | GI50 (A549 NSCLC): 15.1 µM | TGI (A549 NSCLC): > 100 µM | GI50 (ACHN renal): 13.6 µM | TGI (ACHN renal): > 100 µM | GI50 (BT-549 breast): 6.07 µM | TGI (BT-549 breast): 27.4 µM | GI50 (CAKI-1 renal): 7.91 µM | TGI (CAKI-1 renal): 32.9 µM | GI50 (CCRF-CEM leukemia): 6.56 µM | TGI (CCRF-CEM leukemia): > 100 µM | GI50 (COLO 205 colon): 11.3 µM | TGI (COLO 205 colon): 25.2 µM | GI50 (DU-145 prostate): 21 µM | TGI (DU-145 prostate): > 100 µM | GI50 (EKVX NSCLC): 11.8 µM | TGI (EKVX NSCLC): > 100 µM | GI50 (HCC-2998 colon): 6.14 µM | TGI (HCC-2998 colon): 31 µM | GI50 (HCT-116 colon): 4.66 µM | TGI (HCT-116 colon): 26.2 µM | GI50 (HCT-15 colon): 4.16 µM | TGI (HCT-15 colon): 27.8 µM | GI50 (HL-60(TB) leukemia): 4.77 µM | TGI (HL-60(TB) leukemia): 43.5 µM | GI50 (HOP-62 NSCLC): 16.4 µM | TGI (HOP-62 NSCLC): 80.6 µM | GI50 (HOP-92 NSCLC): 2350 nM | TGI (HOP-92 NSCLC): 9.24 µM | GI50 (HS 578T breast): 11.1 µM | TGI (HS 578T breast): 89.6 µM | GI50 (HT29 colon): 9.76 µM | TGI (HT29 colon): 29.8 µM | GI50 (IGROV1 ovarian): 16 µM | TGI (IGROV1 ovarian): 68 µM | GI50 (K-562 leukemia): 4.01 µM | TGI (K-562 leukemia): 78.6 µM | GI50 (KM12 colon): 8.81 µM | TGI (KM12 colon): > 100 µM | GI50 (LOX IMVI melanoma): 10.6 µM | TGI (LOX IMVI melanoma): 28.9 µM | GI50 (M14 melanoma): 9.82 µM | TGI (M14 melanoma): 34.1 µM | GI50 (MALME-3M melanoma): 11.5 µM | TGI (MALME-3M melanoma): 31.7 µM | GI50 (MCF7 breast): 6 µM | TGI (MCF7 breast): > 100 µM | GI50 (MDA-MB-231 breast): 12.8 µM | TGI (MDA-MB-231 breast): 35.1 µM | GI50 (MDA-MB-435): 13.4 µM | TGI (MDA-MB-435): 37.2 µM | GI50 (MDA-MB-468 breast): 19.1 µM | TGI (MDA-MB-468 breast): > 100 µM | GI50 (MOLT-4 leukemia): 3.45 µM | TGI (MOLT-4 leukemia): 49.2 µM | GI50 (NCI-H226 lung): 11.9 µM | TGI (NCI-H226 lung): 49.1 µM | GI50 (NCI-H23 lung): 13.6 µM | TGI (NCI-H23 lung): > 100 µM | GI50 (NCI-H460 lung): 13.5 µM | TGI (NCI-H460 lung): 46.7 µM | GI50 (NCI-H522 lung): 16.1 µM | TGI (NCI-H522 lung): 92.7 µM | GI50 (OVCAR-3 ovarian): 9.27 µM | TGI (OVCAR-3 ovarian): 80 µM | GI50 (OVCAR-4 ovarian): 4.96 µM | TGI (OVCAR-4 ovarian): 86.4 µM | GI50 (OVCAR-5 ovarian): 11.2 µM | TGI (OVCAR-5 ovarian): 50.8 µM | GI50 (OVCAR-8 ovarian): 20.9 µM | TGI (OVCAR-8 ovarian): > 100 µM | GI50 (PC-3 prostate): 3.19 µM | TGI (PC-3 prostate): > 100 µM | GI50 (RPMI-8226 leukemia): 4.44 µM | TGI (RPMI-8226 leukemia): > 100 µM | GI50 (RXF 393 renal): 11.5 µM | TGI (RXF 393 renal): 79.3 µM | GI50 (SF-268 CNS): 14.8 µM | TGI (SF-268 CNS): > 100 µM | GI50 (SF-295 CNS): 12.1 µM | TGI (SF-295 CNS): 33 µM | GI50 (SF-539 CNS): 8.28 µM | TGI (SF-539 CNS): 25.9 µM | GI50 (SK-MEL-2 melanoma): 13.9 µM | TGI (SK-MEL-2 melanoma): 30.1 µM | GI50 (SK-MEL-28 melanoma): 17.8 µM | TGI (SK-MEL-28 melanoma): 74.8 µM | GI50 (SK-MEL-5 melanoma): 12.4 µM | TGI (SK-MEL-5 melanoma): 26.3 µM | GI50 (SK-OV-3 ovarian): 18.1 µM | TGI (SK-OV-3 ovarian): 98.7 µM | GI50 (SN12C renal): 12 µM | TGI (SN12C renal): > 100 µM | GI50 (SNB-19 CNS): 20 µM | TGI (SNB-19 CNS): > 100 µM | GI50 (SNB-75 CNS): 12.7 µM | TGI (SNB-75 CNS): 64.3 µM | GI50 (SR leukemia): 7.09 µM | TGI (SR leukemia): 50.3 µM | GI50 (SW-620 colon): 21.2 µM | TGI (SW-620 colon): > 100 µM | GI50 (T-47D breast): 3.42 µM | TGI (T-47D breast): 77.8 µM | GI50 (TK-10 renal): 38 µM | TGI (TK-10 renal): > 100 µM | GI50 (U251 CNS): 13.6 µM | TGI (U251 CNS): > 100 µM | GI50 (UACC-257 melanoma): 22.7 µM | TGI (UACC-257 melanoma): 93.3 µM | GI50 (UACC-62 melanoma): 12.6 µM | TGI (UACC-62 melanoma): 29.1 µM | GI50 (UO-31 renal): 2380 nM | TGI (UO-31 renal): 72.7 µM
